Measurements reported in US7411083B2, “Substituted acetic acid derivatives” (Wyeth, priority 2003, dated 2008).

The compounds below were run against T1, recombinant human plasminogen activator inhibitor-1 (PAI-1) (Homo sapiens, UniProt P05121) (assay: Screening for PAI-1 inhibition (residual tPA activity, Spectrozyme-tPA chromogenic substrate)). Settings: test compound at 100 Um; pH 6.6 buffer, 140 nM PAI-1, 70 nM tPA.
T1 construct: purchased Molecular Innovations, Royal Oak, Mich
Type: biochemical
Method: Screening for PAI-1 inhibition. Test compounds are dissolved in DMSO at a final concentration of 10 Mm, then diluted 100× in physiologic buffer. The inhibitory assay is initiated by the addition of the test compound (1-100 μM final concentration, maximum DMSO concentration of 0.2%) in a Ph 6.6 buffer containing 140 Nm recombinant human plasminogen activator inhibitor-1 (PAI-1; Molecular Innovations, Royal Oak, Mich.). Following a 1 hour incubation at room temperature, 70 Nm of recombinant human tissue plasminogen activator (Tpa) is added, and the combination of the test compound, PAI-1 and Tpa is incubated for an additional 30 minutes. Following the second incubation, Spectrozyme-Tpa (American Diagnostica, Greenwich, Conn.), a chromogenic substrate for Tpa, is added and absorbance read at 405 nm at 0 and 60 minutes. Relative PAI-1 inhibition is equal to the residual Tpa activity in the presence of the test compounds and PAI-1. Control treatments include the complete inhibition of Tpa by PAI-1 at the molar ratio employed (2:1), and the absence of any effect of the test compound on Tpa alone.

T1 sequence (P05121 24-402): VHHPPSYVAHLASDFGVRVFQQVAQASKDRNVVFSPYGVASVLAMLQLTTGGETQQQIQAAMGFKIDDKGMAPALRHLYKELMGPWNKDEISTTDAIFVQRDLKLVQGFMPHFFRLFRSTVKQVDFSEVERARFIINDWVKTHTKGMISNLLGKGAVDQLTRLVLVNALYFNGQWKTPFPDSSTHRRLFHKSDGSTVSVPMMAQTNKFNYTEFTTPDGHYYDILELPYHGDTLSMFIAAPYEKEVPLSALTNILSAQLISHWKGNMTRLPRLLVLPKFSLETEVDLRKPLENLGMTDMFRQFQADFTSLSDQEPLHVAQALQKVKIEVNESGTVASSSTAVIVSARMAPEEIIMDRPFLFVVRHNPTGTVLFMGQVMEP

inhibition at 100 µM [%] | SMILES
26 | CCn1cc(/C=N/OCC(=O)O)c2cc(OCc3cccc(C)c3)ccc21 [Compound 26, {[((1E)-{1-ethyl-5-[(3-methylbenzyl)oxy]-1H-indol-3-yl}methylidene)amino]oxy}acetic acid]
84 | O=C(O)CO/N=C/c1cccc(-c2cccc(OCc3ccc(Cl)cc3)c2)c1 [Compound 66, {[((1E)-{3′-[(4-chlorobenzyl)oxy]-1,1′-biphenyl-3-yl}methylidene)amino]oxy}acetic acid]
77 | O=C(O)CO/N=C/c1ccc(-c2cccc(OCc3cccc(Br)c3)c2)cc1 [Compound 91, {[((1E)-{3′-[(3-bromobenzyl)oxy]-1,1′-biphenyl-4-yl}methylidene)amino]oxy}acetic acid]
57 | O=C(O)CO/N=C/c1cccc(-c2ccc(OCc3ccc(Cl)c(Cl)c3)cc2)c1 [Compound 83, {[((1E)-{4′-[(3,4-dichlorobenzyl)oxy]-1,1′-biphenyl-3-yl}methylidene)amino]oxy}acetic acid]
58 | O=C(O)CO/N=C/c1ccc(-c2ccc(OCc3ccc(Cl)c(Cl)c3)cc2)cc1 [Compound 108, {[((1E)-{4′-[(3,4-dichlorobenzyl)oxy]-1,1′-biphenyl-4-yl}methylidene)amino]oxy}acetic acid]
63 | Cc1cccc(COc2cccc(-c3ccc(/C=N/OCC(=O)O)cc3)c2)c1 [Compound 100, {[((1E)-{3′-[(3-methylbenzyl)oxy]-1,1′-biphenyl-4-yl}methylidene)amino]oxy}acetic acid]
23 | O=C(O)CO/N=C/c1cccc(-c2ccc(OCc3cccc(Cl)c3)cc2)c1 [Compound 78, {[((1E)-{4′-[(3-chlorobenzyl)oxy]-1,1′-biphenyl-3-yl}methylidene)amino]oxy}acetic acid]
88 | O=C(O)CO/N=C/c1cccc(-c2cccc(OCc3ccc(Br)cc3)c2)c1 [Compound 60, {[((1E)-{3′-[(4-bromobenzyl)oxy]-1,1′-biphenyl-3-yl}methylidene)amino]oxy}acetic acid]
85 | Cc1cccc(COc2cccc(-c3cccc(/C=N/OCC(=O)O)c3)c2)c1 [Compound 71, {[((1E)-{3′-[(3-methylbenzyl)oxy]-1,1′-biphenyl-3-yl}methylidene)amino]oxy}acetic acid]
30 | O=C(O)CO/N=C/c1ccc(-c2cccc(OCc3cc(C(F)(F)F)cc(C(F)(F)F)c3)c2)cc1 [Compound 90, ({[(1E)-(3′-{[3,5-bis(trifluoromethyl)benzyl]oxy}-1,1′-biphenyl-4-yl)methylidene]amino}oxy)acetic acid]
34 | O=C(O)CO/N=C/c1ccc(-c2cccc(OCc3ccc(C(F)(F)F)cc3)c2)cc1 [Compound 88, ({[(1E)-(3′-{[4-(trifluoromethyl)benzyl]oxy}-1,1′-biphenyl-4-yl)methylidene]amino}oxy)acetic acid]
6 | Cc1cccc(COc2ccc(-c3ccc(/C=N/OCC(=O)O)cc3)cc2)c1 [Compound 110, {[((1E)-{4′-[(3-methylbenzyl)oxy]-1,1′-biphenyl-4-yl}methylidene)amino]oxy}acetic acid]
92 | Cc1cccc(COc2ccc(/C=N/OCC(=O)O)cc2OCc2cccc(C)c2)c1 [Compound 118, {[((1E)-{3,4-bis[(3-methylbenzyl)oxy]phenyl}methylidene)amino]oxy}acetic acid]

More lines, now with the values behind:

SMILES | inhibition at 100 µM [%]
O=C(O)CO/N=C/c1ccc(OCc2ccc(Br)cc2)cc1OCc1ccc(Br)cc1 [Compound 125, {[((1E)-{2,4-bis[(4-bromobenzyl)oxy]phenyl}methylidene)amino]oxy}acetic acid] | 90
O=C(O)CO/N=C/c1ccc(OCc2cccc(C(F)(F)F)c2)c(OCc2cccc(C(F)(F)F)c2)c1 [Compound 119, ({[(1E)-(3,4-bis{[3-(trifluoromethyl)benzyl]oxy}phenyl)methylidene]amino}oxy)acetic acid] | 93
CC(C)(C)c1ccc(COc2ccc(/C=N/OCC(=O)O)c(OCc3ccc(C(C)(C)C)cc3)c2)cc1 [Compound 126, {[((1E)-{2,4-bis[(4-tert-butylbenzyl)oxy]phenyl}methylidene)amino]oxy}acetic acid] | 77
C=CCn1cc(/C=N/OCC(=O)O)c2cc(OCc3ccccc3Cl)ccc21 [Compound 49, {[((1E)-{1-allyl-5-[(2-chlorobenzyl)oxy]-1H-indol-3-yl}methylidene)amino]oxy}acetic acid] | 93
O=C(O)CO/N=C/c1ccc(OCc2ccc(F)c(F)c2)c(OCc2ccc(F)c(F)c2)c1 [Compound 121, {[((1E)-{3,4-bis[(3,4-difluorobenzyl)oxy]phenyl}methylidene)amino]oxy}acetic acid] | 72
Cn1cc(/C=N/OCC(=O)O)c2cc(OCc3cccc(Br)c3)ccc21 [Compound 37, {[((1E)-{5-[(3-bromobenzyl)oxy]-1-methyl-1H-indol-3-yl}methylidene)amino]oxy}acetic acid] | 70
O=C(O)CO/N=C/c1cccc(OCc2ccc(C(F)(F)F)cc2)c1OCc1ccc(C(F)(F)F)cc1 [Compound 134, ({[(1E)-(2,3-bis{[4-(trifluoromethyl)benzyl]oxy}phenyl)methylidene]amino}oxy)acetic acid] | 100
O=C(O)CO/N=C/c1cc(OCc2ccc(F)cc2)ccc1OCc1ccc(F)cc1 [Compound 153, {[((1E)-{2,5-bis[(4-fluorobenzyl)oxy]phenyl}methylidene)amino]oxy}acetic acid] | 96
Cn1cc(/C=N/OCC(=O)O)c2cc(OCc3ccc(Cl)cc3)ccc21 [Compound 47, {[((1E)-{5-[(4-chlorobenzyl)oxy]-1-methyl-1H-indol-3-yl}methylidene)amino]oxy}acetic acid] | 31
C#CCn1cc(/C=N/OCC(=O)O)c2cc(OCc3ccc(C(F)(F)F)cc3)ccc21 [Compound 31, ({[(1E)-(1-(2-propynyl)-5-{[4-(trifluoromethyl)benzyl]oxy}-1H-indol-3-yl)methylidene]amino}oxy)acetic acid] | 90
O=C(O)CO/N=C/c1cc(OCc2ccc(F)cc2)cc(OCc2ccc(F)cc2)c1 [Compound 143, {[((1E)-{3,5-bis[(4-fluorobenzyl)oxy]phenyl}methylidene)amino]oxy}acetic acid] | 95
C#CCn1cc(/C=N/OCC(=O)O)c2cc(OCc3cccc(Cl)c3)ccc21 [Compound 38, [({(1E)-[5-[(3-chlorobenzyl)oxy]-1-(2-propynyl)-1H-indol-3-yl]methylidene}amino)oxy]acetic acid] | 62
C#CCn1cc(/C=N/OCC(=O)O)c2cc(OCc3ccc(Cl)cc3)ccc21 [Compound 44, [({(1E)-[5-[(4-chlorobenzyl)oxy]-1-(2-propynyl)-1H-indol-3-yl]methylidene}amino)oxy]acetic acid] | 83
O=C(O)CO/N=C/c1ccc(OCc2ccc(F)cc2)cc1OCc1ccc(F)cc1 [Compound 123, {[((1E)-{2,4-bis[(4-fluorobenzyl)oxy]phenyl}methylidene)amino]oxy}acetic acid] | 72
O=C(O)CO/N=C/c1cccc(C#CCOc2cccc(Cl)c2)c1 [Compound 172, {[((1E)-{3-[3-(3-chlorophenoxy)prop-1-ynyl]phenyl}methylidene)amino]oxy}acetic acid] | 44
Cn1cc(/C=N/OCC(=O)O)c2cc(OCc3cccc(C(F)(F)F)c3)ccc21 [Compound 43, ({[(1E)-(1-methyl-5-{[3-(trifluoromethyl)benzyl]oxy}-1H-indol-3-yl)methylidene]amino}oxy)acetic acid] | 81
C=CCn1cc(/C=N/OCC(=O)O)c2cc(OCc3ccc(C)cc3)ccc21 [Compound 19, {[((1E)-{1-allyl-5-[(4-methylbenzyl)oxy]-1H-indol-3-yl}methylidene)amino]oxy}acetic acid] | 73
C=CCn1cc(/C=N/OCC(=O)O)c2cc(OCc3cccc(Cl)c3)ccc21 [Compound 16, {[((1E)-{1-allyl-5-[(3-chlorobenzyl)oxy]-1H-indol-3-yl}methylidene)amino]oxy}acetic acid] | 58
O=C(O)CO/N=C/c1ccc(C#CCOc2cccc(Cl)c2)cc1 [Compound 166, {[((1E)-{4-[3-(3-chlorophenoxy)prop-1-ynyl]phenyl}methylidene)amino]oxy}acetic acid] | 42
C=CCn1cc(/C=N/OCC(=O)O)c2cc(OCc3ccccc3)ccc21 [Compound 40, [({(1E)-[1-allyl-5-(benzyloxy)-1H-indol-3-yl]methylidene}amino)oxy]acetic acid] | 50
O=C(O)CO/N=C/c1cccc(C#CCOc2cc(C(F)(F)F)cc(C(F)(F)F)c2)c1 [Compound 170, ({[(1E)-(3-{3-[3,5-bis(trifluoromethyl)phenoxy]prop-1-ynyl}phenyl)methylidene]amino}oxy)acetic acid] | 73
O=C(O)CO/N=C/c1cn(Cc2ccccc2)c2ccc(OCc3ccc4ccccc4c3)cc12 [Compound 56, [({(1E)-[1-benzyl-5-(2-naphthylmethoxy)-1H-indol-3-yl]methylidene}amino)oxy]acetic acid] | 62
